Results taken from patent US20250230193A1, “CYCLIC COMPOUND HAVING SELECTIVE KRAS INHIBITORY EFFECT ON HRAS AND NRAS” (CHUGAI SEIYAKU KABUSHIKI KAISHA, priority 2022, published 2025).
Where a SMILES comes first, the peptide text is derived from it. Bridges are numbered along the chain shown (N, C = ends). [ ]: non-standard residue; d: D form. The star is where a group is joined. hPhe(3,5-F2-4-CF3) = N[C@@H](CCc1cc(F)c(C(F)(F)F)c(F)c1)C(=O)O; hPhe(3-Cl-4-CF3) = N[C@@H](CCc1ccc(C(F)(F)F)c(Cl)c1)C(=O)O; NPrPhe(4-CF3) = CCCN[C@@H](Cc1ccc(C(F)(F)F)cc1)C(=O)O; NEtPhe(4-Me) = CCN[C@@H](Cc1ccc(C)cc1)C(=O)O; NMeGly(cPent) = CN[C@H](C(=O)O)C1CCCC1; Hyp = O=C(O)[C@@H]1C[C@@H](O)CN1; NMeD = CN[C@@H](CC(=O)O)C(=O)O; Ac4c(3-oxa) = NC1(C(=O)O)COC1; NMeL = CN[C@@H](CC(C)C)C(=O)O; Morpholide = C1CN(*)CCO1; Ac5c = NC1(C(=O)O)CCCC1; Aze = O=C(O)[C@@H]1CCN1; Ac4c = NC1(C(=O)O)CCC1; NEtG = CCNCC(=O)O; Sar = CNCC(=O)O

What was measured:
[1] = target: GDP-bound NRAS wild-type protein (Homo sapiens, UniProt P01111); assay: Binding to NRAS by surface plasmon resonance (SPR), Single Cycle Kinetics; conditions: SPR; for NRAS/KRAS (ratio of KD value for NRAS to KD value for KRAS) / NRAS/KRAS (ratio of KD value with respect to NRAS to KD value with respect to KRAS): GDP-bound NRAS wild-type vs GDP-bound KRAS wild-type
[2] = target: GDP-bound HRAS wild-type protein (Homo sapiens, UniProt P01112); assay: Binding to HRAS by surface plasmon resonance (SPR), Single Cycle Kinetics; conditions: SPR; for HRAS/KRAS (ratio of KD value for HRAS to KD value for KRAS) / HRAS/KRAS (ratio of KD value with respect to HRAS to KD value with respect to KRAS): GDP-bound HRAS wild-type vs GDP-bound KRAS wild-type
Chain of GDP-bound HRAS wild-type protein (P01112 whole entry): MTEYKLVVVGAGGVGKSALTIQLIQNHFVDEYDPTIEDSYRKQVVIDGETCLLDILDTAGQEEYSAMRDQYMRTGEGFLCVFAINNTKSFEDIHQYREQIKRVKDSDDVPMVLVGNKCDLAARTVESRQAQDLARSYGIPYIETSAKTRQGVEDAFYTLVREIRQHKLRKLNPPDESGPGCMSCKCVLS

Chain of GDP-bound NRAS wild-type protein (P01111 whole entry): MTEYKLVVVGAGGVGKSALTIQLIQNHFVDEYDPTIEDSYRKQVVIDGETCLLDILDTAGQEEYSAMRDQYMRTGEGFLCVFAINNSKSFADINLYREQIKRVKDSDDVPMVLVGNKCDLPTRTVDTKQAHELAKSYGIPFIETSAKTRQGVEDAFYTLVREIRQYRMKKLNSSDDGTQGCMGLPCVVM

CCCN(C)C(=O)[C@@H]1CC(=O)N(C)[C@@H](C(C)C)C(=O)N[C@@H]([C@@H](C)CC)C(=O)N(C)CC(=O)N(C)[C@H]2C/C=C\CCN(C2=O)[C@@H](Cc2ccc(C(F)(F)F)cc2)C(=O)N(C)CC(=O)N[C@@H](CCc2ccc(C(F)(F)F)c(OC)c2)C(=O)N2C[C@H](OCC)C[C@H]2C(=O)NC2(CCC2)C(=O)N(C)[C@@H](C2CCCC2)C(=O)N1C [PP2020]
NRAS/KRAS (ratio of KD value for NRAS to KD value for KRAS) [1]: A (a compound having 10 or more and less than 20 is denoted as A) | HRAS/KRAS (ratio of KD value for HRAS to KD value for KRAS) [2]: A (a compound having 10 or more and less than 20 is denoted as A)

CC[C@H](C)[C@@H]1NC(=O)[C@H](CC(C)C)N(C)C(=O)C[C@@H](C(=O)N2CCOCC2)N(C)C(=O)[C@H](C2CCCC2)N(C)C(=O)C2(CCCC2)NC(=O)[C@@H]2CCCN2C(=O)[C@H](CCc2ccc(C(F)(F)F)c(Cl)c2)NC(=O)CN(C)C(=O)[C@H](Cc2ccc(C)cc2)N(CC)C(=O)CN(CC)C(=O)CN(C)C1=O [PP0027] ([NMeL]I[Sar][NEtG][NEtPhe(4-Me)][Sar][hPhe(3-Cl-4-CF3)]P[Ac5c][NMeGly(cPent)][NMeD]-Morpholide; lactam N-11)
NRAS/KRAS (ratio of KD for GDP-bound NRAS wild-type to KD for KRAS) ([1]; KD ratio NRAS/KRAS): C (A compound having a KD ratio of 0.1 or more and less than 3 is denoted as C) | HRAS/KRAS (ratio of KD for GDP-bound HRAS wild-type to KD for KRAS) ([2]; KD ratio HRAS/KRAS): C (A compound having a KD ratio of 0.1 or more and less than 3 is denoted as C)

CCOC[C@H]1C(=O)N[C@@H]([C@@H](C)CC)C(=O)N(C)CC(=O)N(C)[C@H]2C/C=C\CCN(C2=O)[C@@H](Cc2ccc(C(F)(F)F)cc2)C(=O)N(C)CC(=O)N[C@@H](CCc2ccc(C(F)(F)F)c(OC)c2)C(=O)N2C[C@@H](C)C[C@H]2C(=O)NC2(CC(C)(C)C2)C(=O)N(C)[C@@H](C2CCCC2)C(=O)N(C)[C@H](C(=O)N(C)CC)CC(=O)N1C [PP1993]
NRAS/KRAS (ratio of KD value for NRAS to KD value for KRAS) [1]: A (a compound having 10 or more and less than 20 is denoted as A) | HRAS/KRAS (ratio of KD value for HRAS to KD value for KRAS) [2]: A (a compound having 10 or more and less than 20 is denoted as A)

CCOC[C@H]1C(=O)N[C@@H]([C@@H](C)CC)C(=O)N(C)CC(=O)N(C)[C@H]2C/C=C\CCN(C2=O)[C@@H](Cc2ccc(C)cc2)C(=O)N(C)CC(=O)N[C@@H](CCc2cc(F)c(C(F)(F)F)c(F)c2)C(=O)N2C[C@@H](C)C[C@H]2C(=O)NC2(CC(C)(C)C2)C(=O)N(C)[C@@H](C2CCCC2)C(=O)N(C)[C@H](C(=O)N(C)CC)CC(=O)N1C [PP2457]
NRAS/KRAS (ratio of KD value with respect to NRAS to KD value with respect to KRAS) [1]: A (a compound having 10 or more and less than 20 is denoted as A) | HRAS/KRAS (ratio of KD value with respect to HRAS to KD value with respect to KRAS) [2]: A (a compound having 10 or more and less than 20 is denoted as A)

CCCN1C(=O)[C@@H]2CCN2C(=O)CN(C)C(=O)[C@H]([C@@H](C)CC)NC(=O)[C@H](CC(C)C)N(C)C(=O)C[C@@H](C(=O)N2CCOCC2)N(C)C(=O)[C@H](C2CCCC2)N(C)C(=O)C2(CCC2)NC(=O)[C@@H]2C[C@@H](OCC)CN2C(=O)[C@H](CCc2ccc(C(F)(F)F)c(Cl)c2)NC(=O)CN(C)C(=O)[C@@H]1Cc1ccc(C(F)(F)F)cc1 [PP0411] ([NMeL]I[Sar][Aze][NPrPhe(4-CF3)][Sar][hPhe(3-Cl-4-CF3)][Hyp](Et)[Ac4c][NMeGly(cPent)][NMeD]-Morpholide; lactam N-11)
NRAS/KRAS (ratio of KD value with respect to GDP-bound NRAS wild-type protein to KD value with respect to KRAS) ([1]; KD ratio NRAS/KRAS): C (A compound having a KD ratio of 0.1 or more and less than 3 is denoted as C) | HRAS/KRAS (ratio of KD value with respect to GDP-bound HRAS wild-type protein to KD value with respect to KRAS) ([2]; KD ratio HRAS/KRAS): C (A compound having a KD ratio of 0.1 or more and less than 3 is denoted as C)

CCCN1C(=O)CN(C)C(=O)CN(C)C(=O)[C@H]([C@@H](C)CC)NC(=O)[C@H](CC(C)C)N(C)C(=O)C[C@@H](C(=O)N2CCOCC2)N(C)C(=O)[C@H](C2CCCC2)N(C)C(=O)C2(COC2)NC(=O)[C@@H]2CCCN2C(=O)[C@H](CCc2cc(F)c(C(F)(F)F)c(F)c2)NC(=O)CN(C)C(=O)[C@@H]1Cc1ccc(C(F)(F)F)cc1 [PP0765] ([NMeL]I[Sar][Sar][NPrPhe(4-CF3)][Sar][hPhe(3,5-F2-4-CF3)]P[Ac4c(3-oxa)][NMeGly(cPent)][NMeD]-Morpholide; lactam N-11)
NRAS/KRAS (ratio of KD value with respect to GDP-bound NRAS wild-type protein to KD value with respect to KRAS) ([1]; KD ratio NRAS/KRAS): B (a compound having 3 or more and less than 10 is denoted as B) | HRAS/KRAS (ratio of KD value with respect to GDP-bound HRAS wild-type protein to KD value with respect to KRAS) ([2]; KD ratio HRAS/KRAS): C (A compound having a KD ratio of 0.1 or more and less than 3 is denoted as C)

CCOC[C@H]1C(=O)N[C@@H]([C@@H](C)CC)C(=O)N(C)CC(=O)N(C)[C@H]2C/C=C\CCN(C2=O)[C@@H](CC2CCC(F)(F)CC2)C(=O)N(C)CC(=O)N[C@@H](CCc2ccc(C(F)(F)F)c(OC)c2)C(=O)N2C[C@H](OCC)C[C@H]2C(=O)N(C)C2(CCC2)C(=O)N(C)[C@@H](C(CC)CC)C(=O)N(C)[C@H](C(=O)N(C)C)CC(=O)N1C [PP2347]
NRAS/KRAS (ratio of KD value with respect to NRAS to KD value with respect to KRAS) [1]: A (a compound having 10 or more and less than 20 is denoted as A) | HRAS/KRAS (ratio of KD value with respect to HRAS to KD value with respect to KRAS) [2]: A (a compound having 10 or more and less than 20 is denoted as A)
